Assay results published in patent US12343368B2, “Cleome droserifolia extract and therapeutic or cosmetic use thereof” (ANPJ HEALTHCARE, priority 2019, dated 2025).

Key:
[1] = Antioxidant activity, cell viability (MTT) after hydrogen peroxide stress; format: cell-based; conditions: mouse, NCTC clone 929 cells, Without H2O2, read-out: Cellular viability (%)
NCTC clone 929 cell line = test: as above; format: cell-based; conditions: 0.56 mg/ml; for Absorbance Mean: 570 nm
citrated ovine plasma = test: Coagulant activity in vitro (coagulation time, coagulometer); format: biochemical
Method: The material used is described as follows: • The 6th international standard for unfractionated heparin (WHO 07; 328) • Activated cephaloplastin reagent Dade® Actin®—Siemens • Calcium chloride—Siemens®. • Thermo Scientific coagulometer • Citrated ovine plasma 8.7%. • Aqueous extract of lyophilized Cleome droserifolia The operating protocol is described as follows: The lyophilized extract was dissolved in ultrapure water to obtain a stock concentration of 2 mg/ml. Dilution was carried out to obtain a concentration of 0.6 mg/ml. In a first experiment, 100 μl of each of the following solutions was added to the cuvettes of the coagulometer (n=2): • Lyophilisate solution concentrated at 0.6 mg/ml, • Heparin solution at a concentration of 0.6 IU/ml • Physiological solution for the control group, • Then, 100 μl of sheep plasma was added to all the wells. • After 2 minutes, 100 μl of reactant activated with Cephalosplatin Cade® Actin was added. • After 5 minutes of incubation, 100 μl of calcium chloride solution were added and the coagulation times were recorded.

For `O=C1O[C@H]([C@@H](O)CO)C(O)=C1O` [ascorbic acid], the viability at 24 h, 0.56 mg/ml [1] was 77.6%, the viability at 25 µM (NCTC clone 929 cell line; NCTC clone 929, With H2O2 (25 μM), read-out: Cellular viability (%)) was 74.4% and the “Absorbance Mean” value (NCTC clone 929 cell line; With H2O2 (25 μM)) was 0.3564. The “Absorbance Mean” value (NCTC clone 929 cell line; Without H2O2) was 0.3719.
For Heparin, the coagulation time (citrated ovine plasma; heparin) was 54.3 s and the coagulation time (citrated ovine plasma; heparin 0.6 IU/ml) was 54.3 s.
